Data as given in patent publication US9545105B2, “1-(heterocyclic carbonyl) piperidines” (BAYER INTELLECTUAL PROPERTY GMBH, priority 2010, dated 2017).

How the values were obtained:
[1] = system: Sphaerotheca fuliginea; assay: In vivo preventive test on Sphaerotheca fuliginea (cucumber); conditions: 500 ppm of active ingredient, evaluated 7 days after inoculation
Protocol: Solvent: 49 parts by weight of N,N-dimethylformamide Emulsifier: 1 part by weight of Alkylarylpolyglycolether To produce a suitable preparation of active compound, 1 part by weight of active compound is mixed with the stated amounts of solvent and emulsifier, and the concentrate is diluted with water to the desired concentration. To test for preventive activity, young plants are sprayed with the preparation of active compound at the stated rate of application. One day after this treatment, the plants are inoculated with an aqueous spore suspension of Sphaerotheca fuliginea. Then the plants are placed in a greenhouse at approximately 23° C. and a relative atmospheric humidity of approximately 70%. The test is evaluated 7 days after the inoculation. 0% means an efficacy which corresponds to that of the untreated control, while an efficacy of 100% means that no disease is observed.

[2] = system: Blumeria graminis f. sp. hordei; assay: In vivo preventive test on Blumeria graminis (barley); conditions: 500 ppm of active ingredient, evaluated 7 days after inoculation
Protocol: (§1) Solvent: 49 parts by weight of N,N-dimethylacetamide Emulsifier: 1 part by weight of alkylaryl polyglycol ether To produce a suitable preparation of active compound, 1 part by weight of active compound or active compound combination is mixed with the stated amounts of solvent and emulsifier, and the concentrate is diluted with water to the desired concentration. To test for preventive activity, young plants are sprayed with the preparation of active compound or active compound combination at the stated rate of application. After the spray coating has been dried, the plants are dusted with spores of Blumeria graminis f. sp. hordei. The plants are placed in the greenhouse at a temperature of approximately 18° C. and a relative atmospheric humidity of approximately 80% to promote the development of mildew pustules. The test is evaluated 7 days after the inoculation. 0% means an efficacy which corresponds to that of the untreated control, while an efficacy of 100% means that no disease is observed.

[3] = system: Venturia inaequalis; assay: In vivo preventive test on Venturia inaequalis (apple scab); conditions: 100 ppm of active ingredient, evaluated 10 days after inoculation
Protocol: (§2) Solvent: 24.5 parts by weight of acetone • 24.5 parts by weight of N,N-dimethylacetamide Emulsifier: 1 part by weight of alkylaryl polyglycol ether To produce a suitable preparation of active compound, 1 part by weight of active compound is mixed with the stated amounts of solvent and emulsifier, and the concentrate is diluted with water to the desired concentration. To test for preventive activity, young plants are sprayed with the preparation of active compound at the stated rate of application. After the spray coating has dried on, the plants are inoculated with an aqueous conidia suspension of the causal agent of apple scab (Venturia inaequalis) and then remain for 1 day in an incubation cabinet at approximately 20° C. and a relative atmospheric humidity of 100%. The plants are then placed in a greenhouse at approximately 21° C. and a relative atmospheric humidity of approximately 90%. The test is evaluated 10 days after the inoculation. 0% means an efficacy which corresponds to that of the untreated control, while an efficacy of 100% means that no disease is observed.

[4] = log P by HPLC on reversed-phase column (C 18), EEC Directive 79/831 Annex V.A8; assay type: physicochemical; conditions: HPLC on reversed-phase column (C 18), 40° C., 0.1% aqueous formic acid and acetonitrile, linear gradient 10% to 90% acetonitrile
Summary of the method: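 Compounds are eluted at 40° C using 0.1% aqueous formic acid and acetonitrile in a linear gradient from 10% to 90% acetonitrile. Unbranched alkan-2-ones bearing 3 to 16 carbons with known log P serve as calibrants. Each log P is interpolated linearly from retention times of the two bracketing alkanones.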

[5] = system: Septoria tritici; assay: In vivo preventive test on Septoria tritici (wheat); conditions: 500 ppm of active ingredient, evaluated 21 days after inoculation
Protocol: as §1, with “sprayed” for “dusted”, “a spore suspension” for “spores”, “Septoria tritici. The plants remain for 48 hours in an incubation cabinet at approximately 20° C. and a relative atmospheric humidity of approximately 100% and afterwards for 60 hours at approximately 15° C. in a translucent incubation cabinet at a relative atmospheric humidity of approximately 100%.” for “Blumeria graminis f. sp. hordei.”, “15°” for “18°”, “80%.” for “80% to promote the development of mildew pustules.”, “21” for “7”

[6] = system: Pyrenophora teres; assay: In vivo preventive test on Pyrenophora teres (barley); conditions: 500 ppm of active ingredient, evaluated 7-9 days after inoculation
Summary of the method: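 Young barley plants sprayed with compound in DMF/alkylaryl polyglycol ether emulsion; inoculated with P. teres spores one day later. 48 h at 22 °C, 100% humidity, then greenhouse ~20 °C, ~80% humidity; efficacy scored 7-9 days post-inoculation, 0% = untreated, 100% = no disease.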

[7] = system: Uromyces appendiculatus; assay: In vivo preventive test on Uromyces appendiculatus (bean rust); conditions: 100 ppm of active ingredient, evaluated 10 days after inoculation
Protocol: as §2, with “spore” for “conidia”, “bean rust (Uromyces appendiculatus)” for “apple scab (Venturia inaequalis)”

[8] = system: Alternaria solani; assay: In vivo preventive test on Alternaria solani (tomato); conditions: 500 ppm of active ingredient, evaluated 7 days after inoculation
Protocol: Solvent: 49 parts by weight of N,N-dimethylformamide Emulsifier: 1 part by weight of Alkylarylpolyglycolether To produce a suitable preparation of active compound, 1 part by weight of active compound is mixed with the stated amounts of solvent and emulsifier, and the concentrate is diluted with water to the desired concentration. To test for preventive activity, young plants are sprayed with the preparation of active compound at the stated rate of application. One day after this treatment, the plants are inoculated with an aqueous spore suspension of Alternaria solani. The plants remain for one day in an incubation cabinet at approximately 22° C. and a relative atmospheric humidity of 100%. Then the plants are placed in an incubation cabinet at approximately 20° C. and a relative atmospheric humidity of 96%. The test is evaluated 7 days after the inoculation. 0% means an efficacy which corresponds to that of the untreated control while an efficacy of 100% means that no disease is observed.

| Compound | Efficacy [1] | Efficacy [2] | Efficacy [3] | chromatographic logP ([4]; reversed-phase HPLC column (C 18)) | Efficacy [5] | Efficacy [6] | Efficacy [7] | Efficacy [8] | logP [4] |
| --- | --- | --- | --- | --- | --- | --- | --- | --- | --- |
| Cc1ccccc1C1CCCCN1C(=O)c1c(C)nn(C)c1F (stereo not drawn) [Example 1, (5-fluoro-1,3-dimethyl-1H-pyrazol-4-yl)[2-(2-methylphenyl)-piperidin-1-yl]methanone] | 95% | 89% | 99% | 2.71 | 100% | 100% | 100% | 95% |  |
| CCc1nn(C)c(F)c1C(=O)N1CCCCC1c1ccccc1C (stereo not drawn) [Example 4] | 95% | 78% |  |  | 100% | 100% |  | 95% | 3.06 |
| Cc1nn(C)c(F)c1C(=O)N1CCCCC1c1ccccc1Cl (stereo not drawn) [Example 36] | 89% |  |  |  | 80% | 100% |  | 95% | 2.89 |
| CCc1nn(C)c(F)c1C(=O)N1CCCCC1c1ccccc1Cl (stereo not drawn) [Example 37] | 70% |  |  |  | 80% | 95% |  | 95% | 3.19 |
| CCc1nn(C)c(F)c1C(=O)N1CCCCC1c1cccc(Cl)c1 (stereo not drawn) [Example 43] |  |  |  |  | 80% | 100% |  | 95% | 3.31 |
| Cc1nn(C)c(F)c1C(=O)N1CCCCC1c1cccc(Cl)c1 (stereo not drawn) [Example 44] | 89% |  |  |  | 90% | 100% |  | 95% | 2.94 |
| Cc1nn(C)c(F)c1C(=O)N1CCCCC1c1ccc(Cl)cc1 (stereo not drawn) [Example 51] |  |  |  |  | 100% | 100% |  | 95% | 2.98 |
| Cc1nn(C)c(F)c1C(=O)N1CCCCC1c1cccc(Cl)c1Cl (stereo not drawn) [Example 73] | 85% |  |  |  | 80% | 100% |  | 95% | 3.25 |
| Cc1nn(C)c(F)c1C(=O)N1CCCCC1c1ccc(Cl)cc1Cl (stereo not drawn) [Example 76] |  |  |  |  | 100% | 100% |  | 90% | 3.39 |
| Cc1nn(C)c(F)c1C(=O)N1CCCCC1c1cc(Cl)ccc1Cl (stereo not drawn) [Example 83] | 94% |  |  |  | 80% | 100% |  | 95% | 3.29 |
| Cc1cc(C(=O)N2CCCCC2c2ccccc2Br)c(C)o1 (stereo not drawn) [Example 86] |  |  |  |  | 78% | 90% |  | 90% | 3.96 |
| CCc1nn(C)c(F)c1C(=O)N1CCCCC1c1ccccc1Br (stereo not drawn) [Example 87] |  |  |  |  | 89% | 100% |  | 95% | 3.25 |
| Cc1nn(C)c(F)c1C(=O)N1CCCCC1c1ccccc1Br (stereo not drawn) [Example 88] | 94% |  |  |  | 89% | 95% |  | 95% | 2.99 |
| CCc1nn(C)c(F)c1C(=O)N1CCCCC1c1ccc2ccccc2c1 (stereo not drawn) [Example 117] |  |  |  |  | 90% | 95% |  | 95% | 3.58 |
| Cc1nn(C)c(F)c1C(=O)N1CCCCC1c1ccc2ccccc2c1 (stereo not drawn) [Example 118] |  |  |  |  | 100% | 100% |  | 95% | 3.21 |
| CC(c1ccccc1)C1CCCCN1C(=S)c1c(C(F)F)nn(C)c1F (stereo not drawn) [Example 139] | 95% |  |  |  |  | 100% |  | 95% | 4.14 |
| Cn1nc(C(F)F)c(C(=O)N2CCCCC2Cc2ccc(F)cc2)c1F (stereo not drawn) [Example 156] | 75% |  |  |  |  | 100% |  | 100% | 3.11 |
| CC(c1ccccc1Cl)C1CCCCN1C(=O)c1c(C(F)F)nn(C)c1F (stereo not drawn) [Example 163] | 98% |  |  |  |  | 100% |  | 100% | 3.72 |
| CCC(c1ccccc1Cl)C1CCCCN1C(=S)c1c(C(F)F)nn(C)c1F (stereo not drawn) [Example 165] | 100% |  | 99% |  |  | 100% | 73% | 90% | 4.95 |
| CC(c1ccccc1Cl)C1CCCCN1C(=S)c1c(C(F)F)nn(C)c1F (stereo not drawn) [Example 166] | 100% |  |  |  |  | 100% |  | 100% | 4.53 |
| CCc1nn(C)c(F)c1C(=O)N1CCCCC1CCc1ccccc1 (stereo not drawn) [Example 176] |  |  |  |  | 70% | 95% |  | 90% | 3.25 |
| Cn1nc(C(F)F)c(C(=O)N2CCCCC2CCOc2ccc(C(F)(F)F)cn2)c1F (stereo not drawn) [Example 196] | 70% |  |  |  |  | 100% |  | 100% | 3.57 |
